These results are taken from patent US5567704A, “R-enatiomerically pure hydroxylated xanthine compounds to treat baldness” (priority 1995, dated 1996).

Assay [1] has as its system TNF-α release from IL-1α activated PEC. Briefly: TNF-α release from IL-1α-activated peritoneal macrophages (ELISA). In kind it is cell-based, murine. The following applies: Mus musculus, Peritoneal macrophage, 50 ng/ml IL-1α, 24, 48 or 72 hrs, FIG. 20, read-out: inhibition of induced levels of TNF-α. The procedure: Murine peritoneal exudate cell macrophages (PEC) were isolated by perfusion of mouse peritoneum and plated into 96-well trays at 5×10^5 cells per well. Cells were stimulated with 5 μg/ml Salmonella abortus equi -derived endotoxin (LPS; Sigma Chemical Co., L-1887) or […] IL-1α (Genzyme; Cambridge, Mass.) with or without the addition of CT1501R added to the cultures one hour prior to addition of the stimulus. At various times thereafter, supernatants were removed and levels of either TNF-α or IL-1α were assayed using commercial 96-well microtiter immunoassay kits (Genzyme; TNF; Endogen, Boston, Mass.; IL-1α) according to manufacturer's specifications. For the adhesion studies, early passage human umbilical vein endothelial cells (HUVEC) were obtained. from commercial suppliers (Clonetics, San Diego, Calif. or Cell Systems, Seattle, Wash.) and cultured in defined, Hepes buffered, serum free medium (Cell Systems, cat 301-180) supplemented with acidic FGF (Cell Systems cat 401-111). 4000 cells were plated into each well of a 96-well microtiter plate and allowed to incubate for 72 hrs at 37° C. […] After addition of […] Hanks Balanced Salt Solution (HBSS), the microtiter plate was then analyzed on a Millipore Cytofluor fluorescent plate reader (excitation 488 nm; emission 525 nm). […]

Assay [2] has as its system lysophosphatidic acid acyl transferase (LPAAT). Briefly: in vitro inhibition of LPAAT in 3T3 Ras-transformed fibroblasts stimulated with IL-1β. The class given is cell-based. The protocol: FIG. 17 illustrates a comparison of CT1501R, its S isomer CT1501S, and PTX on in vitro inhibition of lysophosphatidic acid acyl transferase (LPAAT), an enzyme involved in second messenger signaling. […] LPAAT activity was determined in 3T3 Ras-transformed fibroblasts stimulated with IL-1β.
One in vitro assay measures inhibition of the relevant enzymes lysophosphatidic acid acyltransferase (LPAAT) and phosphatidic acid phosphoryl hydrolase (PAPH). The assay involves incubating of target cells with a primary stimulus (e.g., a variety of cytokines, growth factors, oncogene products, putative therapeutic agents, irradiation, viral infection, toxins, bacterial infection and the products thereof, and any stimulus which, if not counteracted, has a deleterious effect on the target cell) in the presence or absence of an inventive compound at varying dosage levels. Target cells include, for example, subcellular entities, such as, microsomes derived from mesenchymal and/or ectodermal cells, particularly microsomes from marrow stromal cells or human or rat mesangial cells; microsomes or synaptosomes derived from brain; plasma membrane-enriched microsomes, plasma membranes derived as described in Bursten et at. (J. Biol. Chem. 226:20732-20743, 1991 ), or detergent-solubilized microsomes; synaptosomes, and membranes or other cell preparations solubilized using, for example, NP-40, Miranal, SDS or other neutral detergents; and detergent-solubilized, recombinant, or further purified preparations of cell proteins, including the proteins LPAAT and/or PAPH. After incubation for short periods of time, cell lipids are extracted and assayed by […] according to standard procedures. Briefly, lipids are extracted using, for example, chloroform:methanol 2:1 (v/v), and the extracts are then subjected to HPLC as described in Bursten and Harris, Biochemistry 30:6195-6203, 1991. A Rainin® mu-Porasil column is used with a 3:4 hexane:propanol organic carrier and a 1-10% water gradient during the first 10 minutes of separation. Detection of the peaks in the elution pattern is by absorption in the range of ultraviolet which detects isolated double bonds. The relevant peaks of unsaturated PA and DAG are shown in the elution pattern. It is important to note that the assay method permits discrimination between various forms of PA and DAG so that those relevant to the pathway affected by the (R) or (S) compounds of the invention can be measured directly. Confirmation of the nature of the acyl substituents of these components is accomplished using fast-atom bombardment mass spectroscopy. Thus, the relevant unsaturated (non-arachidonic) PA and DAG subspecies may be detected. The time periods employed are 5-60 seconds after stimulation with the primary stimulus, such as a cytokine. This technique permits assessment of the levels of various lipid components as a function of time.

In a further assay the test system is IL-1α. Briefly: mouse plasma IL-1α ELISA after endotoxin. The class given is in vivo. The following applies: for Plasma IL-1: LPS + CT-1501R. The protocol: For ELISA measurements of cytokine levels in plasma, blood was collected by retro-orbital or cardiac puncture of anesthetized mice, immediately centrifuged and the EDTA plasma stored at -70° C. Particulate free plasma was thawed on ice and cytokine levels determined utilizing commercial ELISA assays with normal mouse plasma used to generate standard curves. Murine tumor necrosis factor-α and interleukin-1αkits were purchased from Genzyme (Cambridge, Mass.) and Endogen (Boston, Mass.), respectively. Each data point was an average of two ELISA measurements made from EDTA […] pooled from three mice. The data summarized in Table 3 were compiled from two independent experiments; data from Table 4 and 5 were from single experiments of three mice per data point.
In particular, peak levels observed at 6, 12 and 18 hours post endotoxin were decreased 1.2, 4.3 and 3.2-fold, respectively. Finally, IL-6 measurements were made in a similar manner (Table 6, FIG. 8).

Turning to `C[C@@H](O)CCCCn1c(=O)c2c(ncn2C)n(C)c1=O` [CT1501R, (R)-1-(5-hydroxyhexyl)-3,7-dimethylxanthine], the inhibition at 250 µM in assay [1] is 50 to 70%. In addition, the “potency relative to the S enantiomer” value in assay [2] is given as “many times more potent than the corresponding S enantiomer”. Further, in assay [2], the “potency relative to the racemic mixture (M1)” value is on record as “two to three time more potent than the racemic mixture”. Also, the “inhibition of LPAAT enzyme activity” value in assay [2] (3T3 Ras-transformed fibroblasts, IL-1β, FIG. 17) is listed as “significantly inhibited enzyme activity”. The “fold decrease of plasma IL-1α” value was determined as 1.2 fold in the assay on IL-1α (6 hours post endotoxin), 4.3 fold in the assay with IL-1α (12 hours post endotoxin) and 3.2 fold in the assay on IL-1α (18 hours post endotoxin). In addition, the “Plasma IL-1” value in the assay with IL-1α (0 hours post LPS) worked out at 0 pg/mL; in the assay on IL-1α (0.17 hours post LPS) it was 0 pg/mL; in the assay with IL-1α (0.5 hours post LPS) it was 22 pg/mL; in the assay with IL-1α (1 hour post LPS), 10.8 pg/mL; with IL-1α (3 hours post LPS), 33.2 pg/mL; in the assay with IL-1α (6 hours post LPS), 133 pg/mL. For the same compound, the “Plasma IL-1” value in the assay on IL-1α (12 hours post LPS) is 32.3 pg/mL; in the assay on IL-1α (18 hours post LPS), 46.7 pg/mL; in the assay on IL-1α (24 hours post LPS), 43.5 pg/mL; in the assay with IL-1α (36 hours post LPS), 18.8 pg/mL; in the assay on IL-1α (48 hours post LPS), 0 pg/mL.
